Reference: patent publication US10245261B2, “Substituted indol-5-ol derivatives and their therapeutic applications” (NantBioScience, Inc., priority 2013, dated 2019)

Columns and labels:
[1] = target: Abl (H396P) (h) (Homo sapiens, UniProt P00519, H396P); test: KinaseProfiler kinase assay; assay type: biochemical
[2] = target: Abl (M351T)(h) (Homo sapiens, UniProt P00519, M351T); test: KinaseProfiler kinase assay; assay type: biochemical
[3] = target: Abl (Q252H) (h) (Homo sapiens, UniProt P00519, Q252H); test: KinaseProfiler kinase assay; assay type: biochemical
[4] = target: Abl(T315I)(h) (Homo sapiens, UniProt P00519, T315I); test: KinaseProfiler kinase assay; assay type: biochemical
[5] = target: Abl(Y253F)(h) (Homo sapiens, UniProt P00519, Y253F); test: KinaseProfiler kinase assay; assay type: biochemical
[6] = target: Ret (V804L)(h) (Homo sapiens, UniProt P07949, V804L); test: KinaseProfiler kinase assay; assay type: biochemical
Procedure, shortened: (§1)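 Steps: compound diluted from DMSO into MOPS/BSA assay buffer; MgATP mix with [γ-33P]ATP added to start; 40 min incubation at room temperature; phosphoric acid stop; filtermat spotting, washing in 50 mM phosphoric acid and methanol; scintillation counting.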

[7] = target: Ret(V804M)(h) (Homo sapiens, UniProt P07949, V804M); test: KinaseProfiler kinase assay; assay type: biochemical
Procedure, shortened: as §1

[8] = target: CaMKIIδ(h) (Homo sapiens, UniProt Q13557); test: KinaseProfiler kinase assay; assay type: biochemical
[9] = target: FGFR2(h) (Homo sapiens, UniProt P21802); test: KinaseProfiler kinase assay; assay type: biochemical
[10] = target: FGFR4(h) (Homo sapiens, UniProt P22455); test: KinaseProfiler kinase assay; assay type: biochemical
[11] = target: Flt4(h) (Homo sapiens, UniProt P35916); test: KinaseProfiler kinase assay; assay type: biochemical
[12] = tested on: human K562 chronic myelogenous leukemia (CML) xenograft; test: CML xenograft model in female SCID mice; assay type: in vivo, mouse
Experimental: The objective of the second study was to evaluate antitumor activities of novel multiple-kinase inhibitor NTW-3475 in human K562 chronic myelogenous leukemia (CML) xenograft model in female SCID mice.
Four to six animals were randomly assigned to study groups. Each animal was weighed, and then injected subcutaneously in the left and right flank area with 0.1 ml of 8.0×10^7 K562 cells per mL.
(§2) Each test or control animal was on a 5-day on, two-day off for two cycles treatment schedule. Tumor growth was measured with a digital hand held caliper twice weekly (once tumor emerges) prior to the first dosing and then two to three times weekly until euthanized. Animals were weighed prior to tumor cell injection, prior to dosing, two to three times weekly with tumor growth measurements, and prior to euthanasia.
This example illustrated antitumor activities of Compound 10 and 11 in human K562 chronic myelogenous leukemia (CML) xenograft model in female SCID mice.
On the appropriate days, each animal in an appropriate group will receive a specific amount of test article either at 75 or 100 mg/kg, and the dosing volume is 10 ml/kg by oral gavage as indicated. Dosing schedule will be once daily for 10 days (qd×10, 5 days on and 2 days off for 2 cycles).

[13] = tested on: TT human Thyroid carcinoma xenograft; test: Thyroid carcinoma xenograft; assay type: in vivo, mouse
Experimental: This example assesses Compound 10, 53 and 88's anti-tumor activity using a SCID mouse xenograft models for TT human Thyroid carcinoma xenograft (FIGS. 65 to 69.)
On the appropriate days, each animal in an appropriate group will receive a specific amount of Compound 10 either at 50 or 100 mg/kg, and the dosing volume is 10 ml/kg by oral gavage as indicated. Dosing schedule will be once daily for 30 days.
On the appropriate days, each animal in an appropriate group will receive a specific amount of Compound 53 either at 50 or 100 mg/kg, and the dosing volume is 10 ml/kg by oral gavage as indicated. Dosing schedule will be once daily for 30 days.
Dosing schedule will be once daily for 30 days.

[14] = tested on: human MV411 human acute myelogenous leukemia (AML) xenograft; test: AML xenograft model in female SCID mice; assay type: in vivo, mouse
Experimental: The objective of the first study was to evaluate antitumor activities of the novel multiple-kinase inhibitor NTW-3475 against human MV411 human acute myelogenous leukemia (AML) xenograft model in female SCID mice.
Four or six animals were randomly assigned to each study group. Each animal was injected subcutaneously in the left and right flank area with 0.1 ml of 1.0×10^8 MV411 cells per mL.
as §2, with “animal was placed on a” for “animal was on a”, “two cycles of vehicle negative control or 25, 50 mg/kg of NTW-3475. Tumor growth” for “two cycles treatment schedule. Tumor growth”
The objective of the first study was to evaluate antitumor activities of the novel multiple-kinase inhibitor Compounds 11, 68, and 82 against human MV411 human acute myelogenous leukemia (AML) xenograft model in female SCID mice.
as §2, with “animal was placed on a” for “animal was on a”, “two cycles of vehicle negative control or 25, 50 mg/kg of compound. Tumor growth” for “two cycles treatment schedule. Tumor growth”

Ret(V804M)(h), sequence (P07949 29-1114 V804M): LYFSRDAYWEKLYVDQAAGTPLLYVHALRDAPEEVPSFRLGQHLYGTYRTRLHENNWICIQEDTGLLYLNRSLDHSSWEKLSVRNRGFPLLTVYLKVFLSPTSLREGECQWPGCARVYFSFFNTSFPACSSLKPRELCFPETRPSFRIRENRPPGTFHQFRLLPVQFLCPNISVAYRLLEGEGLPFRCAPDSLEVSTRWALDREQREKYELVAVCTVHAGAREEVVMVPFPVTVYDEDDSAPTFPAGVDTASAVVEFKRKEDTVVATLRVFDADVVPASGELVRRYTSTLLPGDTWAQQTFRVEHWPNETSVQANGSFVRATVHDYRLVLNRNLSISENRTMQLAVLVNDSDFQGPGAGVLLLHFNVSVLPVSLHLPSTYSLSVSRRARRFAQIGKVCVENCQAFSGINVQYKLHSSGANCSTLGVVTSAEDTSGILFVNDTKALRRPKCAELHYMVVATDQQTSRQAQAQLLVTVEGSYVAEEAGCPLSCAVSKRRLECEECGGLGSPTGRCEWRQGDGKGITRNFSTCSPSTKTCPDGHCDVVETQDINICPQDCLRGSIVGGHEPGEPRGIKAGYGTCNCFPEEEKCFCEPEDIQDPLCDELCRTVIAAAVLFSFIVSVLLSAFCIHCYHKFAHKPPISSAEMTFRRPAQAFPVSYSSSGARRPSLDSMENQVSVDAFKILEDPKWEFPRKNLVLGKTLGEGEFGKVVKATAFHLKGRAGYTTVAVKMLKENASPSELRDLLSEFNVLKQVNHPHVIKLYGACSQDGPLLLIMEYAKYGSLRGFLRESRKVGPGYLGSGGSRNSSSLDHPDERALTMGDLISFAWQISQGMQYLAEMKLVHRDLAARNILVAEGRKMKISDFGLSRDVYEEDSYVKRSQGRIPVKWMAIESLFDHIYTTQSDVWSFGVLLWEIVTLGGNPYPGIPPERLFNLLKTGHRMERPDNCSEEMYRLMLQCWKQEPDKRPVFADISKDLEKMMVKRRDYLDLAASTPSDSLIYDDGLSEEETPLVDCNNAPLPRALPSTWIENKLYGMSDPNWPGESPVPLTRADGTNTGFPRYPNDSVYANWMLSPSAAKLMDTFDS
Flt4(h), sequence (P35916 25-1363): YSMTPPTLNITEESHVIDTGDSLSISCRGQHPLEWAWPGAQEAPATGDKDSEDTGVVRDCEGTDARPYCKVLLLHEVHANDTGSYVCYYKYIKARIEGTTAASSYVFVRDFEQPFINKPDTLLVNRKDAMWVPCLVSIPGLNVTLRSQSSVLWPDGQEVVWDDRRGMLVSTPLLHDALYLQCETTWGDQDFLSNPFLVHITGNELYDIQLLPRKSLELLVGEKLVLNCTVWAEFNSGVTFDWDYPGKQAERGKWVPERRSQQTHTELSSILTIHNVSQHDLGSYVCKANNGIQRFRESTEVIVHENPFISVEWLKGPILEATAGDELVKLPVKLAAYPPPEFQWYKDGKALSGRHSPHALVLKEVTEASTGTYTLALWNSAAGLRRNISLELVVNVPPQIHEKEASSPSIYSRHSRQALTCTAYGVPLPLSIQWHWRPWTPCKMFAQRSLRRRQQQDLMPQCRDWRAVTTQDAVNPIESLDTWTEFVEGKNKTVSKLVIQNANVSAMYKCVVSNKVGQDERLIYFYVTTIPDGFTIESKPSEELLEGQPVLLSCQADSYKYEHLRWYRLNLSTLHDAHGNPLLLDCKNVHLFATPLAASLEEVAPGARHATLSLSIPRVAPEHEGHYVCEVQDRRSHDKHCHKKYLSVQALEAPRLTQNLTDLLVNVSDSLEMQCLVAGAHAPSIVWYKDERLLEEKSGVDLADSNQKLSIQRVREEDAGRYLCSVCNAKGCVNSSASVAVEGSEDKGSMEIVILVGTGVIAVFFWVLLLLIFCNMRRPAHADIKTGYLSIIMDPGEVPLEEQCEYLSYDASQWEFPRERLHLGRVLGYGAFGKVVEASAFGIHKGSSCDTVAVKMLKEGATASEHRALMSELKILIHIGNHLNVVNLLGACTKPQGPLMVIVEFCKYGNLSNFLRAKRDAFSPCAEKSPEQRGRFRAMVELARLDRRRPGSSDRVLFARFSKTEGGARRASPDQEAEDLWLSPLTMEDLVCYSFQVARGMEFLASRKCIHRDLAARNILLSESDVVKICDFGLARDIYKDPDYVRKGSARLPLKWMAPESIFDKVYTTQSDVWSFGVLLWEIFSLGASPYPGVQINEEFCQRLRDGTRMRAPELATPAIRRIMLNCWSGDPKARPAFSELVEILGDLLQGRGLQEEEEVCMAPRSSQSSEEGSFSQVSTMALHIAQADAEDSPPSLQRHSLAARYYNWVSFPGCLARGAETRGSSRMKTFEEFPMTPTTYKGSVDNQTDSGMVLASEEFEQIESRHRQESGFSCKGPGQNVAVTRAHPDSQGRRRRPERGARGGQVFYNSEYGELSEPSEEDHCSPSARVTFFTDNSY
Ret (V804L)(h), sequence (P07949 29-1114 V804L): as the sequence (P07949 29-1114 V804M) above, with M776L counted along it
FGFR4(h), sequence (P22455 22-802): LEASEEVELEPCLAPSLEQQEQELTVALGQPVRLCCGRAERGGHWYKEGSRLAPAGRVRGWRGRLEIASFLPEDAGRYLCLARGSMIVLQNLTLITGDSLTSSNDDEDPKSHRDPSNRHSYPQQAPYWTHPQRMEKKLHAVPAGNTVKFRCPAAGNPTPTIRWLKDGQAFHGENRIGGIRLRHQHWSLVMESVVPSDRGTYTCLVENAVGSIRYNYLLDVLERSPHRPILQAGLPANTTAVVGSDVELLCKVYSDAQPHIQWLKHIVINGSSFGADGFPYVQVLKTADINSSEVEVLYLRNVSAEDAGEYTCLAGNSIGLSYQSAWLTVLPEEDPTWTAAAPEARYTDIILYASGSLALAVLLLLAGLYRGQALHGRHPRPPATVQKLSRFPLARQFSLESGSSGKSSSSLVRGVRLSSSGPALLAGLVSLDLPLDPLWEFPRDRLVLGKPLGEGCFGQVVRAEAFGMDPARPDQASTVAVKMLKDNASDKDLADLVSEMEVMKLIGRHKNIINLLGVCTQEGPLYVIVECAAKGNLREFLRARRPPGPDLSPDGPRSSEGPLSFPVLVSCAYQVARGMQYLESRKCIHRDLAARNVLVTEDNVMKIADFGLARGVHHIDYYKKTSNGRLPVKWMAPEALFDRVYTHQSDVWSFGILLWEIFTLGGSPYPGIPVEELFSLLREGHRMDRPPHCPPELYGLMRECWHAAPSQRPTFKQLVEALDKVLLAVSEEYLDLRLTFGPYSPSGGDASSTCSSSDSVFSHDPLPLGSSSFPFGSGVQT
FGFR2(h), sequence (P21802 22-821): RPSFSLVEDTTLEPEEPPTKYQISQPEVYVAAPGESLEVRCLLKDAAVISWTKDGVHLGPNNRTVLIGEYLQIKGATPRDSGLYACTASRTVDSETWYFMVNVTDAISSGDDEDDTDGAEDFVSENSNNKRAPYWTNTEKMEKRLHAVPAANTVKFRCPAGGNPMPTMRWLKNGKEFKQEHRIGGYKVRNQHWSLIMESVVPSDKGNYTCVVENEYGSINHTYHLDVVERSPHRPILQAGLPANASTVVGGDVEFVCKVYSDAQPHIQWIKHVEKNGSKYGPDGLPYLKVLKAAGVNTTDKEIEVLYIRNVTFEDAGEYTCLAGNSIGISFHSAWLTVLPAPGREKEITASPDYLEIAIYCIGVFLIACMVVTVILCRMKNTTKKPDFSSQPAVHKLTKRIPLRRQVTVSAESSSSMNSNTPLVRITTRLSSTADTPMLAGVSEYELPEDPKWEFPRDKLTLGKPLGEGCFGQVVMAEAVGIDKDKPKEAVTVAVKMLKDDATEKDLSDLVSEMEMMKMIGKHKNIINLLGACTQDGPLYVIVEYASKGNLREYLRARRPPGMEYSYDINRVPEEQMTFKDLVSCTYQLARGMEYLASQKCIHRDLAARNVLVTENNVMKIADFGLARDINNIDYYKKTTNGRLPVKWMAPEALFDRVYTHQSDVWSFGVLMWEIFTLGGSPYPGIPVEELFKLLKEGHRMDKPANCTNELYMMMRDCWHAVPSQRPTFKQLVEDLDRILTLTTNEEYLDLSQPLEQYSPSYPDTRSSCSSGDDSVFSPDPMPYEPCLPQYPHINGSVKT

Cc1cc2c(F)c(Oc3nc(Nc4cc(C5CC5)[nH]n4)cc(N4CCN(C)CC4)n3)ccc2[nH]1 [Compound 10]
inhibition at 0.1 µM [1]: 99%
inhibition at 0.1 µM [2]: 99%
inhibition at 0.1 µM [3]: 99%
inhibition at 0.1 µM [4]: 101%
inhibition at 0.1 µM [5]: 103%
inhibition at 0.1 µM [6]: 103%
inhibition at 0.1 µM [7]: 96%
inhibition at 0.1 µM [8]: -6%
inhibition at 0.1 µM [9]: 99%
inhibition at 0.1 µM [10]: 88%
inhibition at 0.1 µM [11]: 100%
anti-tumor effect [12]: strong anti-tumor effect
body weight change [12]: no body weight lost
anti-tumor effect [13]: anti-tumor effect

C/C=C/c1cc(Nc2cc(N3CCNCC3)nc(Oc3ccc4[nH]c(C)cc4c3F)n2)n[nH]1 [Compound 68]
anti-tumor effect [14]: strong anti-tumor effect
body weight change [14]: minimal body weight lost

C/C=C/c1cc(Nc2cc(N3CCN(CCO)CC3)nc(Oc3cc(F)c4[nH]c(C)cc4c3F)n2)n[nH]1 [Compound 88]
anti-tumor effect [13]: Inhibits Tumor Growth

C/C=C/c1cc(Nc2cc(N3CCN(C)CC3)nc(Oc3cc(F)c4[nH]c(C)cc4c3F)n2)n[nH]1 [NTW-3456]
kinase inhibition of T315I abl mutant [4]: inhibits
anti-tumor effect [14]: significant anti-tumor activity
anti-tumor effect [12]: significant anti-tumor activity
anti-tumor effect [13]: significant anti-tumor activity

C/C=C/c1cc(Nc2cc(N3CCN(C)CC3)nc(Oc3ccc4[nH]c(C)cc4c3F)n2)n[nH]1 [Compound 53]
IC50 ([1]; Abl (H396P)): < 0.1 nM
IC50 ([2]; Abl(M351T)): 0.7 nM
IC50 ([3]; Abl (Q252H)): 0.5 nM
IC50 ([4]; Abl(T315I)): 0.5 nM
IC50 ([5]; Abl (Y253F)): 0.5 nM
IC50 ([6]; Ret(V804L mutation)): 10 nM
IC50 ([7]; Ret(V804M mutation)): 6 nM
IC50 ([9]; FGFR2): 2 nM
IC50 ([10]; FGFR4): 13 nM
IC50 ([11]; VEGFR3): 2 nM

Cc1cc2c(F)c(Oc3nc(Nc4cc(C5CC5)[nH]n4)cc(N4CCNCC4)n3)ccc2[nH]1 [Compound 11, N-(5-cyclopropyl-1H-pyrazol-3-yl)-2-((4-fluoro-2-methyl-1H-indol-5-yl)oxy)-6-(piperazin-1-yl)pyrimidin-4-amine]
inhibition at 0.1 µM [1]: 102%
inhibition at 0.1 µM [2]: 102%
inhibition at 0.1 µM [3]: 102%
inhibition at 0.1 µM [4]: 102%
inhibition at 0.1 µM [5]: 100%
inhibition at 0.1 µM [6]: 102%
inhibition at 0.1 µM [7]: 101%
inhibition at 0.1 µM [8]: 6%
inhibition at 0.1 µM [9]: 99%
inhibition at 0.1 µM [10]: 78%
inhibition at 0.1 µM [11]: 100%
anti-tumor effect [14]: strong anti-tumor effect
body weight change [14]: minimal body weight lost
anti-tumor effect [12]: strong anti-tumor effect
body weight change [12]: no body weight lost

Cc1cc2c(F)c(Oc3nc(Nc4cc(C5CC5)[nH]n4)cc(N4CCNCC4)n3)cc(F)c2[nH]1 [Compound 82]
anti-tumor effect [14]: strong anti-tumor effect
body weight change [14]: minimal body weight lost
